According to ChEMBL document CHEMBL1131545, “A practical synthesis of 3-substituted delta 3,5(6)-steroids as new potential 5 alpha-reductase inhibitor” (Bioorg Med Chem Lett, 1998):

Tests used:
[1] = target: T1, Steroid 5-alpha-reductase (Rattus norvegicus, UniProt P24008+P31214); assay: Ability to inhibit Steroid 5-alpha-reductase in rat using Enzyme kinetics method.
T1 sequence (P24008 whole entry): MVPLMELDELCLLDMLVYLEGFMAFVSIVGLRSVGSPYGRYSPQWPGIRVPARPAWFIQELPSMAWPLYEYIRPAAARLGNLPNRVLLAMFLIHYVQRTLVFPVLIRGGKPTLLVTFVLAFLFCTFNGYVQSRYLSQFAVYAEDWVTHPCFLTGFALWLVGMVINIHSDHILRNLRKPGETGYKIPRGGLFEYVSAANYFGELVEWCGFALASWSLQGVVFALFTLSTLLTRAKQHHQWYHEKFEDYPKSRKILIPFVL
T1 sequence (P31214 whole entry): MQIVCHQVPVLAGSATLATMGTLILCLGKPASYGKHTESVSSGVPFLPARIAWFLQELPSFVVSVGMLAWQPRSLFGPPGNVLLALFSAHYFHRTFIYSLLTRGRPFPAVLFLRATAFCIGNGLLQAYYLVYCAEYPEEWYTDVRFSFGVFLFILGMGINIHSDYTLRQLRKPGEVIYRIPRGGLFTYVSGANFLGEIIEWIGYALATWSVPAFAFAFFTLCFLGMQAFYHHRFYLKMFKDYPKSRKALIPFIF

[2] = target: T1, Steroid 5-alpha-reductase; assay: Ability to inhibit Steroid 5-alpha-reductase in rat using Isotope method [3H]T to [3H]-DHT]

SMILES | Ki [1] | Ki [2]
CCOP(=O)(OCC)C1=CC2=CCC3C(CC[C@@]4(C)C3CC[C@@H]4C(=O)NC(C)(C)C)[C@@]2(C)CC1 (some centres not stated) | 18.1 nM | 68.5 nM
CCN(CC)C(=O)C1=CC2=CCC3C(CC[C@@]4(C)C3CC[C@@H]4C(=O)NC(C)(C)C)[C@@]2(C)CC1 (some centres not stated) | >> 1000 nM | >> 1000 nM
CC(C)(C)NC(=O)[C@H]1CC[C@H]2[C@@H]3CC[C@H]4NC(=O)C=C[C@]4(C)[C@H]3CC[C@]12C [FINASTERIDE] | 54.7 nM | 88.2 nM

Second part, the compound after the results:

Ki [1] | Ki [2] | SMILES
>> 1000 nM | >> 1000 nM | CC(=O)C1=CC2=CCC3C(CC[C@@]4(C)C3CC[C@@H]4C(=O)NC(C)(C)C)[C@@]2(C)CC1 (some centres not stated)
>> 1000 nM | >> 1000 nM | CC(C)(C)NC(=O)[C@H]1CCC2C3CC=C4C=CCC[C@]4(C)C3CC[C@@]21C (some centres not stated)
45.8 nM | 100.2 nM | CC(C)(C)NC(=O)[C@H]1CCC2C3CC=C4C=C(C#Cc5ccccc5)CC[C@]4(C)C3CC[C@@]21C (some centres not stated)
